Measured values reported in ChEMBL document CHEMBL3217686, “A new route to indoles via in situ desilylationSonogashira strategy: identification of novel small molecules as potential anti-tuberculosis agents” (Medchemcomm, 2011).

Tests used:
[1] = system: Mycobacterium tuberculosis; experiment: Inhibition of Mycobacterium tuberculosis chorismate mutase expressed in Escherichia coli BL21 (DE3) assessed as conversion of chorismate to prephenate at 50 uM after 5 mins
[2] = system: Mycobacterium tuberculosis; experiment: (§1) Inhibition of Mycobacterium tuberculosis chorismate mutase expressed in Escherichia coli BL21 (DE3) assessed as conversion of chorismate to prephenate after 5 mins
[3] = as §1

SMILES | inhibition [1] | inhibition [2] | IC50 [3]
CS(=O)(=O)Nc1ccc(C#N)cc1-c1cc2cc(C#N)ccc2n1S(C)(=O)=O | 20% |  | 
CS(=O)(=O)Nc1ccc([N+](=O)[O-])cc1-c1cc2cc([N+](=O)[O-])ccc2n1S(C)(=O)=O | 15% |  | 
Cc1ccc(S(=O)(=O)Nc2ccccc2-c2cc3ccccc3n2S(=O)(=O)c2ccc(C)cc2)cc1 | 12% |  | 
Cc1ccc(S(=O)(=O)Nc2ccc(Cl)cc2-c2cc3cc(Cl)ccc3n2S(=O)(=O)c2ccc(C)cc2)cc1 | 10% |  | 
CS(=O)(=O)Nc1ccc(Cl)cc1-c1cc2cc(Cl)ccc2n1S(C)(=O)=O | 45% |  | 
CS(=O)(=O)Nc1ccccc1-c1cc2ccccc2n1S(C)(=O)=O | 40% |  | 
Cc1ccc(NS(C)(=O)=O)c(-c2cc3cc(C)ccc3n2S(C)(=O)=O)c1 | 42% |  | 
CS(=O)(=O)Nc1ccc(C(F)(F)F)cc1-c1cc2cc(C(F)(F)F)ccc2n1S(C)(=O)=O | 25% |  | 
CS(=O)(=O)Nc1ccc(F)cc1-c1cc2cc(F)ccc2n1S(C)(=O)=O | 69% | Dose-dependent effect | 17 µM
Cc1ccc(S(=O)(=O)Nc2ccc(C)cc2-c2cc3cc(C)ccc3n2S(=O)(=O)c2ccc(C)cc2)cc1 | 15% |  | 
COc1ccc(NS(C)(=O)=O)c(-c2cc3cc(OC)ccc3n2S(C)(=O)=O)c1 | 50% |  | 
Cc1ccc(S(=O)(=O)Nc2ccc(C(F)(F)F)cc2-c2cc3cc(C(F)(F)F)ccc3n2S(=O)(=O)c2ccc(C)cc2)cc1 | 12% |  | 
CC(=O)c1ccc(NS(C)(=O)=O)c(-c2cc3cc(C(C)=O)ccc3n2S(C)(=O)=O)c1 | 30% |  | 
COc1ccc(CCNc2c([N+](=O)[O-])cc(C(=O)O)cc2S(N)(=O)=O)cc1OC |  |  | < 10 µM
Cc1ccc(S(=O)(=O)Nc2ccc(F)cc2-c2cc3cc(F)ccc3n2S(=O)(=O)c2ccc(C)cc2)cc1 | 15% |  | 
